“And” between values parts separate entries of the source, which are not always exact repeats. Identical values can stand only once.
Key:
[1] = target: T1, Nurr1 LBD (Mus musculus, UniProt Q06219); test: Filter binding assay with [3H]-CQ (saturation and competition)
Text: The basal level of transcriptional activity was normalized to 1. The bars represent means±SEM from three independent experiments. (FIG. 13C) Effect of Nurr1 specific siRNA on Nurr1 LBD's transactivation activity. […] (FIG. 13D) Human neuroblastoma SK-N-BE(2)C cells were transfected with the N-terminal flag-tagged SRC1 or SRC3 and the C-terminal myc-tagged full-length Nurr1. […] Cell lysates were immunoprecipitated (IP) using anti-flag antibodies and analyzed by immunoblotting (IB) using anti-myc antibodies. […] The fold induction was derived by comparing each luciferase activity to basal level obtained by non-SRC transfection. […] The concentrations (04) are shown next to the arrows. […] Specific binding was calculated as the difference of total and non-specific binding. The insert indicates Scatchard analysis of the specific binding. […] The data represent the average of triplicate from three independent experiments. All graphs, Kd, Ki, and Bmax values were generated using the non-linear regression program Prism version 5.02.
GF/C filters were wet with in binding buffer and placed on a 48-place filter manifold. […] Filters were washed with 4×100 ml binding buffer, dried, and mixed with 5 ml Scintiverse BD (Fisher) and radioactivity was determined in a Beckman LS6000SC liquid scintillation counter. […] The mixture was applied to GF/C filter and filter was washed and counted as described above.

[2] = target: T1, Nurr1 LBD; test: Nurr1 LBD GAL4 reporter assay (pSVGAL(DBD)-N(LBD), p8xGAL-Luc) in SK-N-BE(2)C cells; format: cell-based
Text: (§1) The pTH2600LUC reporter construct contains the 2.6 kb upstream sequences of the rat tyrosine hydroxylase gene in front of a firefly luciferase gene in pGL3-basic vector. A Nurr1-expression plasmid, pSV40Nurr1, was kindly provided by Dr Orla M. Conneely at Baylor College of Medicine (Houston, Tex., USA). […] The VP16/SRC1 and VP16/SRC3 hybrid were constructed by inserting the transactivation domain of the VP16 protein upstream of SRC1 and SRC3, respectively. […] The recombinant proteins were purified by Ni-NTA column chromatography (Qiagen) according to the manufacturer's instruction. The integrity of all sequences was verified by DNA sequence analyses.
(§2) Human neuroblastoma SK-N-BE(2)C cells were maintained in Dulbecco's modified Eagle's medium (DMEM) supplemented with 10% fetal bovine serum. All culture media contained 100 units/ml penicillin and 100 μg/ml streptomycin. For transfection, cells were plated at 1.5×10^5 cells/well in the DMEM media without antibiotic into 24-well plates 1 day prior to transfection. Transfections were carried out by the Lipofectamine plus (Invitrogen) according to the manufacture's protocol. Total DNA amount was 0.5 μg per well with 0.1 μg of pRSV-β-gal as an internal control. 6 hours after transfection, compounds in the DMEM media with 1% charcoal-stripped fetal calf serum was added and incubated overnight. Cells from each well were lysed with 100 μl of lysis buffer, which contains 25 mM Tris-phosphate (pH 7.8), 2 mM DTT, 2 mM CDTA (1,2-diaminocyclohexane-N,N,N′,N′-tetraacetic acid), 10% glycerol, and 1% Triton X-100. Then equal volume of firefly luciferase substrate was added and the luciferase activity was measured using a Luminometer plate reader and normalized for beta-galactosidase activity.

[3] = system: aphakia (ak/ak) mice; test: Behavioral studies in ak/ak mice (Pole, Challenging Beam, Cylinder, Rotarod) and SN histology; format: in vivo, mouse; conditions: L-DOPA 8 mg/kg i.p. once per day
Method: Either 20 mg/kg of AQ (AQ group) or the saline (Saline group) was intraperitoneally injected (I.P.) twice per day for two weeks. 8 mg/kg of L-DOPA (L-DOPA group) in 0.5% DMSO was injected (I.P.) once per day for two weeks. The L-DOPA group was given 12.5 mg/kg benserazide 20 min prior to administration of L-DOPA.
Each ak mouse was randomly assigned into one of three experiment groups, (1) saline group (negative control; n=8), (2) L-DOPA group (positive control; n=8), (3) AQ group (n=10). Each WT or rdl mouse was randomly divided into two groups, (1) saline group (n=8) and (2) AQ group (n=10). Pole Test, Challenging Beam Traversal Test, and Cylinder Test were performed at two time points, immediately and one month after two weeks of either AQ or saline injection. Each mouse ran each task twice. Rota rod test was performed immediately after two weeks of either drug or saline injection. Acclimation and data recording process were identical to the rat study described above. All tasks were performed as described previously^11 and the short description of each task is as follows.
A vertical wooden pole 50 cm in length and 1 cm in diameter was used for Pole Test. Each mouse was gently placed head upwards on top of the pole which is placed on each animal's home cage. Each mouse ran tree trials per session during 2 training sessions. On the testing day, mice ran three trials. Two parameters (the meantime to orient downward and the total travel mean time) were used for the statistical analysis.
A 1 m length of plastic beam was used for Challenging Beam Traversal Test. The starting width of the beam was 3.5 cm and it gradually narrowed in 1 c increments to 0.5 cm at the other end site of the beam. Animals were trained to walk from the wide end to the other end for 2 sessions, three trials per session before testing. A mesh grid was removed during the training period. On the testing day, a mesh grid (1 cm square) covering the beam surface was equipped leaving a […] room between the grid and the beam surface. On the testing day, mice ran three trials. Two parameters (the mean number of steps taken by each animal and the mean time to traverse across three trials) were collected and used for statistical analysis.
A small transparent cylinder (height, 15.5 cm; diameter, 12.7 cm) was used to evaluate somatosensory motor function. Mice were placed in the cylinder and their rears were counted for 5 minutes. The forelimb touching the Plexiglas wall (a vertical movement) is defined as a full rear. The mean number of forelimb use was calculated for the statistical analysis. […]
The Rota rod equipment (Med-Associates, Inc, Albans, Vt., USA) was used to measure motor coordination. […] The mean latency to fall off from the Rota rod was measured for the statistical analysis. […]

[4] = system: LBDs of Nur77, GR, LXR, RXR, PPARα, PPARγ; test: Target selectivity: GAL4-LBD reporter assays of other nuclear receptors; format: cell-based; conditions: FIG. 19; 30 μM AQ
Method: The positive reactivity of these NR constructs was confirmed by the known activators (2 nM dexamethasone, 20 nM retinoic acid, 2 μM GW3965, 50 nM GW7647, and 5 nM GW1929 for GR, RXR, LXR, PPARα, and PPARγ, respectively). The basal level of transcriptional activity was normalized to 1. Bars represent means±SEM from three independent experiments.
(§4) Human neuroblastoma SK-N-BE(2)C cells were maintained in Dulbecco's modified Eagle's medium (DMEM) supplemented with 10% fetal bovine serum. All culture media contained 100 units/ml penicillin and 100 μg/ml streptomycin. For transfection, cells were plated at 1.5×10^5 cells/well in the DMEM media without antibiotic into 24-well plates 1 day prior to transfection. Transfections were carried out by the Lipofectamine plus (Invitrogen) according to the manufacture's protocol. Total DNA amount was 0.5 μg per well with 0.1 μg of pRSV-β-gal as an internal control. 6 hours after transfection, compounds in the DMEM media with 1% charcoal-stripped fetal calf serum was added and incubated overnight. […] Then equal volume of firefly luciferase substrate was added and the luciferase activity was measured using a Luminometer plate reader and normalized for beta-galactosidase activity.

[5] = system: Nurr1 recruitment to TH promoter NL1 and NL3; test: Chromatin immunoprecipitation in PC12 cells; format: cell-based, rat; conditions: 20 μM AQ or 75 μM CQ for 15 hrs
Method: Error bars represent standard deviations.
Cells were washed with PBS, fixed with 1% formaldehyde, lysed, and sonicated according to the manufacturer's instruction (Active Motif). 25 μg of soluble chromatin DNA were co-immunoprecipitated 1 μg of Nurr1 specific antibody (E-20, Santa Cruz) or control antibody (rabbit IgG, santa Cruz). […] Values are shown as fold induction compared to mock treated control cells.

[6] = system: primary cultures of rat mesencephalic DA neurons; test: 6-OHDA-induced death in primary mesencephalic DA neurons (TH+ count, [3H]DA uptake); format: cell-based; conditions: number of TH+ neurons and DA uptake; 20 μM 6-OHDA for 24 hr
Method: Control DA neurons were treated with the above medium in the presence of a dopamine uptake blocker, 10 μM mazindol (Sigma). Cells were then washed with ice-cold Krebs Ringers solution and lysed with 0.5 M NaOH. Radioactivity was quantified by a liquid scintillation counter (Beckman, Fullerton, Calif.).
To prepare primary cultures of DA neurons, the ventral mesencephalon was removed from 14 day gestation Sprague Dawley rat embryo (Charles River, Cambridge, Mass.). Tissues were incubated with 0.01% trypsin in MEM (MEM, Invitrogen) for 10 min at 37° C. and triturated using a constricted Pasteur pipette. DA neurons were plated at 1.0×10^5 cells per 9 mm diameter glass cover slip precoated with 100 μg/ml poly-D-lysine (Sigma, St. Louis, Mo.) and 4 μg/ml laminin (Invitrogen). DA neurons were maintained at 37° C. in a humidified 5% CO2 atmosphere in minimum essential medium supplemented with 10% FBS (Hyclone), 2 mM glutamine and 6.0 g/l glucose. […]
Cells were fixed in 4% paraformaldehyde (PFA) for 20 min, washed and then incubated with blocking buffer [PBS, 10% goat serum (Invitrogen), 0.3% Triton X-100 (Sigma)] for 1 hour. […] Following washes with PBS, appropriate fluorescence-tagged secondary antibodies (Jackson Immunoresearch Laboratories, West Grove, Pa.) were used for visualization. […]

[7] = system: PC12 cells; test: 6-OHDA toxicity in PC12 cells (MTT reduction assay); format: cell-based, rat
Method: Cell viabilities were determined by the conventional MTT reduction assay. After incubation for indicated times, cells were treated with the MTT solution (final concentration, 1 mg/ml, Sigma) for 1 h. Formazan grains formed in intact cells were solubilized with MTT Solubilization. Solution containing 10% Triton X-100 plus 0.1 N HCl in anhydrous isopropanol for 24 h and then absorbance at 570 nm was measured with a microplate reader (Molecular Devices, Menlo Park, Calif.).

[8] = system: MPTP-treated monkeys; conditions: previous study; cited from earlier work
[9] = system: CQ-sensitive (D6 clone) strain of P. falciparum; test: In vitro antimalarial activity, CQ-sensitive strain; format: cell-based, Plasmodium falciparum; conditions: for IC50: Plasmodium falciparum, CQ-sensitive D6 clone, read-out: P. falciparum (D6 Clone) IC50; for P. falciparum (D6 Clone) S.I.: selectivity index = IC50 cytotoxicity to Vero cells / IC50 antimalarial
Text: (§3) Med. Chem. 2005, 13, 4458; Khan, I. A. Lipids 2004, 37, 169].

[10] = system: CQ-resistant (W2 clone) strain of P. falciparum; test: In vitro antimalarial activity, CQ-resistant strain; format: cell-based, Plasmodium falciparum; conditions: for IC50: Plasmodium falciparum, CQ-resistant W2 clone, read-out: P. falciparum (W2 Clone) IC50; for P. falciparum (W2 Clone) S.I.: selectivity index = IC50 cytotoxicity to Vero cells / IC50 antimalarial
Text: as §3

[11] = system: VERO cells; test: In vitro cytotoxicity to mammalian cells, VERO; format: cell-based; conditions: Chlorocebus sabaeus, Vero; in vitro cytotoxicity to mammalian cells
Text: as §3

[12] = system: LLC-PK-1 cells; test: In vitro cytotoxicity to mammalian cells, LLC-PK-1; format: cell-based; conditions: Sus scrofa, LLC-PK1
Text: as §3

[13] = system: HepG2 cells; test: In vitro cytotoxicity to mammalian cells, HepG2; format: cell-based; conditions: Homo sapiens
Text: as §3

[14] = target: T2, full-length Nurr1 (Mus musculus, UniProt Q06219); test: Full-length Nurr1 reporter assay (p4xNL3-Luc) in SK-N-BE(2)C cells; format: cell-based; conditions: dose-dependent, maximal
T2 construct: Full-length mouse Nurr1cDNA was amplified by RT-PCR from pSV40Nurr1; expressed in transfected cells; host or cells: SK-N-BE(2)C human neuroblastoma cells
Text: as §1
as §2, with “6 hours after transfection, compounds in the DMEM media with 1% charcoal-stripped fetal calf serum was added and incubated overnight. Cells from each well were lysed with 100 μl of lysis buffer, which contains 25 mM Tris-phosphate (pH 7.8), 2 mM DTT, 2 mM CDTA (1,2-diaminocyclohexane-N,N,N′,N′-tetraacetic acid), 10% glycerol, and 1% Triton X-100.” left out

[15] = target: T3, Nurr1 (Mus musculus, UniProt Q06219); test: High-throughput cell-based screen of Nurr1-dependent TH promoter activation; conditions: library of 960 FDA-approved drugs
T3 construct: Full-length mouse Nurr1cDNA was amplified by RT-PCR from pSV40Nurr1; expressed in transfected cells; host or cells: SK-N-BE(2)C human neuroblastoma cells
T3 sequence (Q06219 whole entry): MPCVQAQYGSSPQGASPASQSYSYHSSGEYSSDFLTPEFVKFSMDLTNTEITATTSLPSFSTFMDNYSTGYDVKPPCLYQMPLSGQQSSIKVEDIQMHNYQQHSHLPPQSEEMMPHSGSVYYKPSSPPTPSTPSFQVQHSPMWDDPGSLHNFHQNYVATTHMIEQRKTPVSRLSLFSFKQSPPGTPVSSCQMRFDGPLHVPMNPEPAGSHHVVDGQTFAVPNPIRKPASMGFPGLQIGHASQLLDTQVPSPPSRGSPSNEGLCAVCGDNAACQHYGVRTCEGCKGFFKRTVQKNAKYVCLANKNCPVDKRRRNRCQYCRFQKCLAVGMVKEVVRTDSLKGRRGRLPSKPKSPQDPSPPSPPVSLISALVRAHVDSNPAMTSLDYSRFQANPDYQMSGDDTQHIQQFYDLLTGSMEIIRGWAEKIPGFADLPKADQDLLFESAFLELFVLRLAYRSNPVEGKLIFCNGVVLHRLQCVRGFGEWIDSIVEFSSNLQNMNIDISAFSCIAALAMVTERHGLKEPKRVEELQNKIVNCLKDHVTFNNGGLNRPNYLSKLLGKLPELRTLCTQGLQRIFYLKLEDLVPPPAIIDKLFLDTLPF
Text: The pTH2600LUC reporter construct contains the 2.6 kb upstream sequences of the rat tyrosine hydroxylase gene in front of a firefly luciferase gene in pGL3-basic vector. A Nurr1-expression plasmid, pSV40Nurr1, was kindly provided by Dr Orla M. Conneely at Baylor College of Medicine (Houston, Tex., USA). Full-length mouse Nurr1cDNA was amplified by RT-PCR from pSV40Nurr1 using forward 5′-[sequence]-3′ (SEQ ID NO: 1) and reverse 5′-[sequence]-3′ (SEQ ID NO: 2) oligonucleotides.
as §4

T1 sequence (Q06219 328-598): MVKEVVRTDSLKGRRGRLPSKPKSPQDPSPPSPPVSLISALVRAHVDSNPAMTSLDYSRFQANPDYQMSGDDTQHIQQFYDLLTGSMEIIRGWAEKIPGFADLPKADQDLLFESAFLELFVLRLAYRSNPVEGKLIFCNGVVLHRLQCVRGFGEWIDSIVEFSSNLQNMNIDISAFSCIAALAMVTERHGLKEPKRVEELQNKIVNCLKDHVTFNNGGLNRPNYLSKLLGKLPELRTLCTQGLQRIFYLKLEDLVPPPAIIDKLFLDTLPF
T2 sequence (Q06219 whole entry): as the sequence (Q06219 whole entry) above

Structure (SMILES) | IC50 [9] [nM] | P. falciparum (D6 Clone) S.I. [9] | IC50 [10] [nM] | P. falciparum (W2 Clone) S.I. [10] | IC50 [11] [µM] | IC50 [12] [µM] | IC50 [13] [µM] | melting point [°C] | further results
CCN(CC)CCCC(C)Nc1ccnc2cc(Cl)ccc12 (stereo not shown) [[^3H]-CQ] |  |  |  |  |  |  |  |  | Kd ([1]; radioligand saturation binding, read-out: dissociation constant, saturable binding to Nurr1-LBD): 270 nM
COc1cc(NC(C)CCCN)c2ncccc2c1 (stereo not shown) [primaquine] |  |  |  |  |  |  |  |  | transactivation of Nurr1 LBD / Nurr1 transcriptional function ([2]; wide range of concentrations, FIG. 18): couldn't enhance the Nurr1 transcriptional function; Ki, competition with [3H]-CQ for binding to Nurr1-LBD ([1]; 500 nM [3H]-CQ): unable to compete
N[C@@H](Cc1ccc(O)c(O)c1)C(=O)O [L-DOPA] |  |  |  |  |  |  |  |  | rearing activity in Cylinder test [3]: dramatically induced rearing activity
CCN(CC)CCCC(C)Nc1ccnc2cc(Cl)ccc12 (stereo not shown) [CQ, chloroquine] |  |  |  |  |  |  |  |  | EC50 ([2]; read-out: EC50 Nurr1 LBD-based reporter activity): ~60000 nM and ~50000 nM; transcriptional activity of other nuclear receptors [4]: unable to induce; Ki ([1]; 500 nM [3H]-CQ): 88 nM; Nurr1 recruitment to NL1 and NL3 sites of the TH promoter [5]: recruited to both NL1 and NL3 sites; 6-OHDA-induced death in primary DA neurons [6]: significantly inhibit; neuroprotective effect in PC12 cells [7]: neuroprotective effect; MPTP-induced parkinsonian motor abnormalities [8]: protected them from MPTP-induced parkinsonian motor abnormalities
Cc1cc(NCCCNc2ccnc3cc(Cl)ccc23)nc(N2CCOCC2)n1 [12f, N-(7-Chloro-quinolin-4-yl)-N′-(6-methyl-2-morpholin-4-yl-pyrimidin-4-yl)-propane-1,3-diamine] | 22 | (>2727) | 58 | (>1034) | > 60 | 35.1 | 26.1 | 165 to 167 | 
O=C(OCC(O)CO)c1ccccc1Nc1ccnc2cc(Cl)ccc12 (stereo not shown) [glafenine] |  |  |  |  |  |  |  |  | luciferase reporter activity, fold activation [14]: approximately 1.6 fold; screen outcome [15]: hit compounds
Cc1cc(NCCCCNc2ccnc3cc(Cl)ccc23)nc(N2CCCCC2)n1 [12c, N-(7-Chloro-quinolin-4-yl)-N′-(6-methyl-2-piperidin-1-yl-pyrimidin-4-yl)-butane-1,4-diamine] | 21 | (>2857) | 82 | (>730) | > 60 | > 60 | > 60 | 187 to 189 | 
Cc1cc(NCCNc2ccnc3cc(Cl)ccc23)nc(N2CCOCC2)n1 [12e, N-(7-Chloro-quinolin-4-yl)-N′-(6-methyl-2-morpholin-4-yl-pyrimidin-4-yl)-ethane-1,2-diamine] | 25 | (>2400) | 120 | (>500) | > 60 | > 60 | > 60 | 165 to 167 | 

From patent US11026943B2, “Aminoquinoline derivatives and uses thereof” (UNIVERSITY OF DELHI, priority 2012, dated 2021)
